Assay: Psilocin conversion in the dose formulation (HPLC-MS/MS)
Format: physicochemical
Conditions: saline formulation, final pH 6.3, aliquots stored at −80° C. until analysis
Experimental: Compounds: Compound 122 was dissolved in saline (1.3 mg/kg) and adjusted to pH 7.4 for SC administration to the neck scruff at a dosing volume of 5 mL/kg. The final pH was checked prior to dosing, and found to be pH 6.3. This dose was selected as it delivered 0.72 mg/kg psilocin (assuming 100% conversion of the pro-drug). Aliquots of the formulation was additionally collected and stored at −80° C. until analysis by high performance liquid chromatography with tandem mass spectrometry (HPLC-MS/MS) to confirm dosing of compound 122 and minimal conversion to psilocin pre-dose (<2.5%).
[…]. Three aliquots from the dose formulations were diluted to a nominal concentration of 5 μg/mL, and injected in triplicate into the HPLC-MS/MS. The relative percentage of the psilocin peak in the dose formulation compared to the psilocin standard peak at 5 μg/mL, was used to assess for psilocin conversion in the dosing formulations.

## CN(C)CCc1c[nH]c2cccc(OC(=O)CCCC(=O)Oc3cccc4[nH]cc(CCN(C)C)c34)c12 [Compound 122, bis(3-(2-(dimethylamino)ethyl)-1H-indol-4-yl) glutarate]
  conversion to psilocin pre-dose in dose formulation: < 2.5%

Source: patent publication US20250066300A1, “3-(2-(DIMETHYLAMINO)ETHYL)-1H-INDOL-4-yl OLIGOMERIC DERIVATIVES” (priority 2023, published 2025)
